From patent publication US20060084599A1, “Compositions, methods and kits relating to notch signaling” (Maine Medical Center, priority 2003, published 2006)

B1: sDl1: soluble non-transmembrane form (extracellular domain) of the Notch ligand Delta1 (protein)
chain: QVWSSGVFELKLQEFVNKKGLLGNRNCCRGGAGPPPCACRTFFRVCLKHYQASVSPEPPCTYGSAVTPVLGVDSFSLPDGGGADSAFSNPIRFPFGFTWPGTFSLIIEALHTDSPDDLATENPERLISRLATQRHLTVGEEWSQDLHSSGRTDLKYSYRFVCDEHYYGEGCSVFCRPRDDAFGHFTCGERGEKVCNPGWKGPYCTEPICLPGCDEQHGFCDKPGECKCRVGWQGRYCDECIRYPGCLHGTCQQPWQCNCQEGWGGLFCNQDLNYCTHHKPCKNGATCTNTGQGSYTCSCRPGYTGATCELGIDECDPSPCKNGGSCTDLENSYSCTCPPGFYGKICELSAMTCADGPCFNGGRCSDSPDGGYSCRCPVGYSGFNCEKKIDYCSSSPCSNGAKCVDLGDAYLCRCQAGFSGRHCDDNVDDCASSPCANGGTCRDGVNDFSCTCPPGYTGRNCSAPVSRCEHAPCHNGATCHERGHRYVCECARGYGGPNCQFLLPELPPGPAVVDLTEKLEGQGGPFPW
modifications: left off: small tags and cut ends
notes: soluble non-transmembrane form (extracellular domain) of the Notch ligand Delta1

Tests used:
[1] = system: CSL1-dependent transcription; test: Dual luciferase reporter assay of CSL1-dependent transcription (Example 2); assay type: cell-based, murine; conditions: for CSL1-dependent transcription, level relative to control: thrombin on full-length Jagged1 NIH 3T3 transfectants, sJ1 expression, 10 ng/ml exogenous FGF1
Protocol: Insert-less vector control and sJ1 NIH 3T3 cell transfectants (approximately 3×10^4) were plated on fibronectin-coated (10 μg/cm^2) cell culture dishes and the cells were transiently transfected at approximately 50% confluency with 500 ng of a luciferase construct containing four tandem copies of the CBF1 response element (Small et al., 2001, J. Biol. Chem. 276:32022-32030).
Cotransfection with 100 ng of the TK Renilla (Promega) construct was used as an internal control for transfection efficiency using Fugene 6 (Roche), according to the manufacturer's instructions. Cells were treated with or without 10, […] hours after transfection, harvested 48 hours after the transfection and luciferase/renilla activity measured using the Dual Luciferase Reporter Assay System (Promega). Each experiment was performed in triplicate.

[2] = system: NIH 3T3 cell transfectants; test: Colony formation in soft agar (anchorage-independent growth); assay type: cell-based, murine; conditions: stable NIH 3T3 cell transfectants expressing the ligand
Protocol: Clonal populations of NIH 3T3 cells stably transfected with vector control, soluble Jagged1 (sJ1), constitutively active Notch1 (caN1), constitutively active Notch 2 (caN2), dominant negative Notch 1 (dnN1), dominant negative Notch 2 (dnN2), an oncogenic mutant of FGF1 engineered with the FGF4 signal peptide sequence (hst-β (FGF4):FGF1), or constitutively active oncogenic Ras construct (caRas), were plated on 6 cm tissue culture dishes with 0.5% agar in an overlay containing DMEM (Gibco BRL) media, 10% bovine calf serum (BCS; Hyclone), and 0.33% agar at 1.5×10^3 cells/dish. As indicated, some dishes were also treated with 1 μM of the FGFR1-specific inhibitor, PD166866 (Panek et al., 1998, J. Pharmacol. Exp. Ther. 286: 569-577) and/or 10 ng/ml recombinant human FGF1 and 10 U/ml heparin (Sigma). Cells were fed with 0.5 ml of media with or without FGF1 and/or the FGFR1-specific inhibitor every 3 days as indicated. Twenty days after plating, colonies were stained with p-iodonitrotetrazolium violet (Sigma) for visualization. Quantitation of colony formation was achieved by counting all p-iodonitrotetrazolium violet-stained colonies consisting of more than 4 cells under a Zeiss Stemi SVII Apo dissecting microscope.
(§1) Anchorage-Dependent and -Independent Cell Growth Assays. Approximately 3×10^4 cells were plated on fibronectin (10 μg/cm^2)-coated in 12-well cell culture dishes (Falcon) in DMEM containing 10% BCS (v/v) (Hyclone). Three wells of the individual NIH 3T3 cell transfectants were harvested every third day and cell number was quantitated using a hemocytometer. Anchorage-independent cell growth was evaluated by plating in duplicate approximately 1.7×10^3 cells in DMEM containing 0.5% (w/v) agar (Sigma) 10% (v/v) BCS into 5 cm plastic dishes (Falcon) as previously described (Small et al., 2003, J. Biol. Chem. 278:16405-16413).

NCSC populations = test: Dosage sensitivity of secondary NCSC to BMP2 and sDl1; assay type: cell-based, murine; conditions: founders expanded 18 days; BMP2 and sDl1 dose response
Protocol: It is well established that quantitative changes in the dosage sensitivity of NCSC populations occur in vitro and in vivo during NCSC self-renewal (Kubu et al., 2002, Dev. Biol. 244:199-214; White et al., 1999, Development 126:4351-4363; White et al., 2001, Neuron 29:57-71). In order to resolve whether it was possible to clonally expand stem cell populations without the loss of qualitative or quantitative differentiation potential, it was evaluated whether NCSC population expansion in either a thrombin or a sJ 1 environment was able to maintain the quantitative dosage sensitivity of the NCSC populations to instructive differentiation factors. NCSC clones were expanded with either thrombin, TRAP, or sJ1 for 18 days, the clones dissociated to a clonal density every 6 days to minimize cell-cell interactions, and the p75^+/P0^− cells identified. The dosage sensitivity of secondary NCSC populations to both BMP2 and sDl1 was evaluated using the clonogenic differentiation assay to quantitate the production of neuron-only clones (BMP2) and glial-only clones (sDl1) after day 18.

cortactin = test: Phosphotyrosine cortactin immunoblot; assay type: cell-based, mouse; conditions: stable NIH 3T3 cell transfectants expressing the ligand
Protocol: (§2) Immunoblot Analysis. Cell lysates from insert-less vector sDl1 and sJ1 NIH 3T3 cell transfectants were prepared in 20 mM Tris HCl, pH 7.5, containing 300 mM sucrose, 60 mM—KCl, 15 mM NaCl, 0.5 mM EDTA, 0.5% (v/v) Triton X-100, 1 mM phenylmethylsulfonyl fluoride, 10 μg/ml leupeptin, 2 μg/ml aprotinin, 0.1% (w/v) deoxycholic acid and 1 mM sodium orthovanadate. Samples of equal protein content were subjected to SDS-PAGE and immunoblot analysis was performed as previously described (Small et al., 2001, J. Biol. Chem. 276:32022-32030) using either a rabbit anti-Src [pY418] phosphospecific antibody (Biosource International), a rabbit anti-total Src antibody (Santa Cruz Biotechnology), a rabbit polyclonal anti-cortactin antibody (a gift from Dr. Xi Zhan, American Red Cross), or an anti-phosphotyrosine antibody (Upstate). Immunoprecipitation of cortactin was performed as previously described (Zhan et al., 1993, J. Biol. Chem. 268:24427-24431).

Src = Src pY418 immunoblot; assay type: cell-based, mouse; conditions: stable NIH 3T3 cell transfectants expressing the ligand
Protocol: as §2

[3] = system: NIH 3T3 cell transfectants; test: Anchorage-dependent cell growth assay; assay type: cell-based, mouse; conditions: stable NIH 3T3 cell transfectants, 10% BCS
Protocol: as §1

[4] = system: FGF gene family transcripts; test: RT-PCR of FGF gene family expression; assay type: cell-based, murine; conditions: stable NIH 3T3 cell transfectants expressing the ligand
Protocol: Total RNA from vector control, sJ1, caN1 and dnN1 stable transfectants was isolated using Tri Reagent™ (Sigma) according to the manufacturer's protocol. cDNA was obtained from 5 μg total RNA with SuperScript™ (Invitrogen) reverse transcriptase using an oligo dT primer (Invitrogen). The following specific primers were purchased from IDT and used for RT-PCR analysis. Sense primers are indicated by (s); Antisense primers are indicated by (as): […]
PCR amplification was performed for 45 cycles as follows: 40 seconds at 94° C., 40 seconds at 50° C. (for FGF2, FGF3, FGF4 and FGFR3) or at 55° C. (for FGF6, FGF7, FGF8, FGF9, FGF10, FGFR1 and FGFR2), 1 minute at 72° C. For FGF5, RT-PCR analysis was performed as described (Ozawa et al., 1998, J. Biol. Chem. 273: 29262-29271) and all amplified DNA was visualized with ethidium bromide on 1.5% agarose gels.

Molecule | CSL1-dependent transcription, level relative to control [1] | anchorage-independent growth of transfectants [2] | shift in sensitivity of secondary stem cells to instructive differentiation signals (NCSC populations) | level of tyrosine-phosphorylated cortactin (cortactin) | level of active Src (Src) | growth kinetics at high cell density [3] | FGF gene family mRNA expression in transfectants [4] | effect on Notch-dependent CSL1 activity ([1]; full-length Jagged1 NIH 3T3 cell transfectants)
sJ1: Soluble Jagged1, amino acid residues about 1 to 1067 (SEQ ID NO:3) of full-length human Jagged1 | approximately 25 % of the control level | form colonies in soft agar | this shift in sensitivity to instructive differentiation signals was not observed | increased level | increase in the level of active Src | impaired contact inhibition of growth | expression of mRNAs encoding FGF1, FGF3, FGF4, and FGF5 | 
thrombin | approximately 75 % of the control level |  | this shift in sensitivity to instructive differentiation signals was not observed |  |  |  |  | able to reduce the level of Notch-dependent CSL1 activity in a dose-dependent manner
B1 |  | form colonies in soft agar |  | decrease | increase in the level of active Src | impaired contact inhibition of growth | express the FGF3, FGF4 and FGF9 transcripts | 
